Consider six molecules from US6749832B2, “Labelled ascorbic acid derivatives” (Amersham PLC, priority 1999, dated 2004).

Series [1] has as its system MC3T3-E1 murine pre-osteoblast cells. The series is described as follows: Standard cell uptake assay: competition for uptake of ^14C-ascorbic acid. The settings on record: for IC50: Mus musculus, competition with ^14C-ascorbic acid uptake into MC3T3-E1 cells; for Competition: competition with 125 μM ^14C-ascorbic acid for uptake into MC3T3-E1 cells, 60 min. Format: cell-based. As for the experimental part:
Unlabelled ascorbic acid derivatives of the present invention have been tested for their ability to compete for uptake of ^14C-ascorbic acid into MC3T3-E1 cells, a murine pre-osteoblast cell line. MC3T3-E1 cells are grown in tissue culture plates and the appropriate assay solution containing a standard concentration of ^14C-ascorbic acid plus a competing concentration of ascorbic acid derivative added to each well. The amount of ^14C-ascorbic acid taken up by the cells in 60 min is then measured.
Standard Cell Uptake Assay
Transport buffer: 134 mM NaCl, 5.4 mM KCl, 1.8 mM CaCl2, 0.8 mM MgSO4, 20 mM HEPES, 10 mM glucose, pH7.3, stored at room temperature
Assay buffer: Transport buffer+40 μM […] ^14C-ascorbic acid (Amersham Pharmacia Biotech)
Stock solution: 50 μCi in 50 μl Analar water, stored at −20° C.
Assay solution: 200 nCi ^14C-ascorbic acid in 200 μl assay buffer/well (125 μM)
Stop buffer: 200 μM phloretin in assay buffer, chilled to 4° C.
Lysis solution: 0.1% SDS in Analar water
MC3T3-E1 murine pre-osteoblast cells were seeded in a 24-well plate at 2×10^5 cells/well in 1 ml minimal essential media plus 10% FCS, penicillin and streptomycin. Cells were grown overnight at 37° C., 5% CO2. Assay buffer and solutions were prepared on the morning of the assay. Cells were examined under the microscope for confluence and viability. Growth media was removed using a Liquipippette and each well washed with 2×200 μl assay buffer. The appropriate assay solution was added to each well and the plate incubated at 37° C. for the required time. To stop the reaction, 0.5 ml chilled stop buffer was added to each well. Each well was then washed with 0.5 ml stop buffer. Cells were lysed in 0.1% SDS solution for approximately 10 min and solutions transferred to scintillation vials. Each well was then washed with assay buffer and this wash solution also transferred to the appropriate scintillation vial. Scintillation fluid (5 ml) was added to each vial, the vials vortexed and counted on a Rackbeta counter.

Series [2] deals with mineralising nodules of primary rat osteoblasts. In words: Autoradiography of mineralised bone nodules produced by cultured rat osteoblasts. Format: cell-based. The conditions noted are these: 21-day culture period. As for the experimental part: Foetus heads were collected and sprayed with 70% isopropanol. Calvaria were then removed by cutting the skin from the top of the head, making one incision through the calvaria from the external auditory meatus across behind the parietal bones and a second forward to above the eye sockets. When all the calvaria were isolated, they were rinsed with PBS (Ca^2+ and Mg^2+-free), then incubated in trypsin at 37° C. for 10 minutes. Calvaria were transferred into 0.2% collagenase (type II) in HBSS for 30 minutes at 37° C. This collagenase digestion was repeated for 60 minutes to release the osteoblast populations. Supernatant was removed and spun down to obtain a cell pellet. The pellet was resuspended in media, viable cells counted and plated out into a T75 flask. Once confluent, cells were subcultured into 6-multiwell plates at 2×10^4-2×10^5 cells/well in 3 ml medium containing 1 mM β-glycerophosphate. In addition ascorbic acid (50 μg/ml), ^14C-ascorbic acid (19.6 μCi/ml) or ^14C-compound 7 (2.8 μCi/ml) were incubated with osteoblasts over the culture period. Cells were fed two to three times per week and cultured for up to 21 days. Nodules became macroscopically visible at around 7-10 days and commenced mineralisation (assessed by Alizarin red staining) soon after. […]

For series [3] the following is noted: reported in the literature; cited from earlier work.

In general, IC50 refers to the concentration that gives 50% inhibition. As to `O=C1O[C@H]([C@@H](O)CO)C(O)=C1O` [Ascorbic acid, ascorbic acid], in series [1], the IC50 amounted to 258 µM and the Competition entry is “Yes”.

Regarding `O=C1O[C@H]([C@@H](O)COC(=O)c2ccc(I)cc2)C(O)=C1O` [Compound 12, 6-O-(4-iodobenzoyl)-L-ascorbic acid], in series [1], the IC50 is 384 µM and the Competition entry was “Yes”.

Turning to `O=C(/C=C/I)OCC(O)C1OC(=O)C(O)=C1O` (stereo not drawn) [Compound 15], in series [1], the 50% inhibitory concentration (IC50) came to 796 µM and the Competition entry is “Yes”.

As to `O=C1OC(C(O)CSc2ccccc2)C(O)=C1O` (stereo not drawn) [Compound 16], in series [1], the “competition for uptake of ^14C-ascorbic acid into MC3T3-E1 cells (text)” value was “competed”, the IC50 came out at 1850 µM and the Competition result is “Yes”. Moreover, the “competition for uptake of ^14C-ascorbic acid into MC3T3-E1 cells (text)” value in series [1] (listed as compound 16) is given as “very weak”.

With `O=C1O[C@H]([C@@H](O)CO)C(O)=C1O` [^14C-ascorbic acid], the “association with / accumulation in mineralised bone nodules (autoradiography)” value in series [2] is listed as “associated with the mineralising nodules”.

For `O=C1O[C@H]([C@@H](O)C[18F])C(O)=C1O` [^18F-DFA, 6-deoxy-6-[^18F]fluoro-L-ascorbic acid], in series [3], the bone uptake result is “very low”.
